We go through one compound from ChEMBL document CHEMBL3112501, “Design, synthesis and preliminary bioactivity studies of 1,2-dihydrobenzo[d]isothiazol-3-one-1,1-dioxide hydroxamic acid derivatives as novel histone deacetylase inhibitors” (Bioorg Med Chem, 2014).

The target of the test is Histone deacetylase (HDAC1 and HDAC2) (Homo sapiens, UniProt Q13547+Q92769). As to the kind of experiment: Inhibition of HDAC1/2 in human HeLa cell extracts using acetylated histone peptide as substrate after 30 mins. Format: protein assay.

A word on the IC50: it is the midpoint of a concentration-inhibition curve. Low values mean higher potency, high ones lower potency. Take `O=C(CCCCCN1C(=O)c2ccc(NC(=O)Cc3ccccc3)cc2S1(=O)=O)NO`: the IC50 is 0.244 µM.
